The record followed here is US20240240078A1, “NUCLEIC ACID FUNCTIONALIZED METAL NANOPROBE AND PREPARATION METHOD THEREFOR” (SOUTHEAST UNIVERSITY, priority 2021, published 2024).

Test [1] has as its system Escherichia coli. Briefly: Germicidal effect after 808 nm laser irradiation, culture on solid medium and counting. It counts as cell-based. How it is done: (§1) A preparation method for a nucleic acid functionalized metal nanoprobe includes: • (1) deoxyribonucleic acid (DNA) molecules are fully mixed with a diluted nucleic acid intercalator SYBR Green I (2.5×), and a mixture is placed at a room temperature to react in dark for 30 min. • (2) a reaction product of step (1) is fully mixed with 100 μmol/L chloroauric acid solution to obtain a mixed solution A. • (3) the mixed solution A and Escherichia coli are continuously co-incubated in a constant-temperature shaking table for 1 h-12 h to obtain a mixed solution B. A normal control group (a chloroauric acid solution having the same concentration as the experimental group is merely added) and a blank group (an Escherichia coli suspension without any treatment) are set. After incubation, a small amount of the above mixed solution are dripped into the slide glass, and mounting is performed with a cover glass. • (4) A slide glass is placed under a laser confocal fluorescence microscope to be activated. Further, the above mixture is irradiated with 808 nm laser for 5-10 min, is cultured on a solid medium, and counted.

The subject of test [2] is Escherichia coli. Briefly: Fluorescence imaging of co-incubated bacteria under laser confocal fluorescence microscope. It is filed as cell-based. How it is done:
as §1

For the compound `[Au+3].[Cl-].[Cl-].[Cl-].[Cl-].[H+]` [chloroauric acid], the “germicidal (antibacterial) effect” value with Escherichia coli [1] (808 nm laser 5-10 min, cultured on solid medium and counted, metal cation 100 μmol/L) is given as “most of Escherichia coli is killed”. Besides, the “sterilization effect with increase of concentration” value in the test on Escherichia coli [1] (method of Example 1, 0-300 μmol/L (FIG. 3)) was “gradually enhanced”. For the same compound, the “fluorescence / signal intensity” value with Escherichia coli [2] (co-incubated with Escherichia coli 1 h-12 h, metal cation 100 μmol/L) is “weak fluorescence”. The “concentration at which signal intensity reaches maximum / does not increase any more” value with Escherichia coli [2] (method of Example 1, 0, 10, 50, 100, 200, 300 μmol/L tested (FIG. 2)) was 100 µmol/L. Further, in the test on Escherichia coli [2] (method of Example 1, 0-300 μmol/L (FIG. 2)), the “signal intensity with increase of concentration” value is recorded as “enhanced”.
